Target: T1, hGPR120 (Homo sapiens, UniProt Q5NUL3)
T1 construct: expressed in transfected cells; host or cells: CHO-K1
T1 sequence (Q5NUL3 1-361): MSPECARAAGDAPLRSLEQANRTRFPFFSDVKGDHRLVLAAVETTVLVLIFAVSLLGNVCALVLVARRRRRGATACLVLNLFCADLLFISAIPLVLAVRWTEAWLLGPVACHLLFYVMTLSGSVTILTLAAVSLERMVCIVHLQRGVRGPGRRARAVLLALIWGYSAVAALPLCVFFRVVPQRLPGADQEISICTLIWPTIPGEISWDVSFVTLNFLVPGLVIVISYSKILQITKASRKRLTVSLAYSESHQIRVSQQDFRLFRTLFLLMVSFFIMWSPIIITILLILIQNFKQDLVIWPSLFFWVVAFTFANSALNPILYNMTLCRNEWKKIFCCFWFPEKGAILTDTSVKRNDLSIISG
Test: Measurement of activity of GPR120 agonist (cell-based calcium fluorescence assay)
Conditions: CHO-K1 cells expressing Ga16 and hGPR120, Calcium 5 dye fluorescence; activity class; read-out: EC50
Experimental: CHO-K1 cells expressing Ga16 and hGPR120 were dispensed into each well of a 96-well plate (3×10^4 cells/100 μl/well) and then incubated in 5% CO2, 37° C. incubator for 18 hours. Each well was treated with 100 μl of Calcium 5 dye (Molecular Devices) solution including 2% DMSO and then incubated in 5% CO2, 37° C. incubator for 1 hour. Serially diluted GPR120 agonists were prepared to a final concentration of 0.5% DMSO in a 96-well plate.
Fluorescence increased by the serially diluted GPR120 agonists is calculated as a relative percent (%) value based on the fluorescence represented by the treatment of 1% DMSO only. […] The calculation of measurement was carried out by using statistical software (Prizm).
Activity is denoted based on the following criteria: […]

| EC50 | Compound |
| --- | --- |
| < 200 nM | O=C(O)CCCOc1c(F)cc(-c2ccccc2OCC2CC2)cc1F [Example 54, 4-(2′-cyclopropylmethoxy-3,5-difluoro-biphenyl-4-yloxy)-butyric acid] |
| < 200 nM | O=C(O)CCCOc1c(F)cc(-c2ccccc2OC2CCCC2)cc1F [Example 55, 4-(2′-cyclopentyloxy-3,5-difluoro-biphenyl-4-yloxy)-butyric acid] |
| 200 to 2000 nM | O=C(O)CCCOc1cc(F)c(-c2cccc(SC3CCC3)n2)cc1F [Example 62, 4-[4-(6-cyclobutylsulfanyl-pyridin-2-yl)-2,5-difluoro-phenoxy]-butyric acid] |
| 2000 to 20000 nM | CC(C)(C)Sc1ncccc1-c1cc(F)c(OCCCC(=O)O)c(F)c1 [Example 63, 4-[4-(2-tert-butylsulfanyl-pyridin-3-yl)-2,6-difluoro-phenoxy]-butyric acid] |
| < 200 nM | CCCSc1ncccc1-c1cc(F)c(OCCCCCC(=O)O)c(F)c1 [Example 64, 6-[2,6-difluoro-4-(2-propylsulfanyl-3-pyridyl)phenoxy]hexanoic acid] |
| < 200 nM | CC(C)=Cc1cccc(-c2cc(F)c(OCCCC(=O)O)c(F)c2)n1 [Example 65, 4-{2,6-difluoro-4-[6-(2-methyl-propenyl)-pyridin-2-yl]-phenoxy}-butyric acid] |
| 2000 to 20000 nM | COCCOc1ncccc1-c1cc(F)c(OCCCC(=O)O)c(F)c1 [Example 71, 4-{2,6-difluoro-4-[2-(2-methoxy-ethoxy)-pyridin-3-yl]-phenoxy}-butyric acid] |
| 200 to 2000 nM | O=C(O)CCCOc1c(F)cc(-c2cccnc2N2CCCC2)cc1F [Example 72, 4-[2,6-difluoro-4-(2-pyrrolidin-1-yl-3-pyridyl)phenoxy]butanoic Acid] |
| 200 to 2000 nM | O=C(O)CCCOc1c(F)cc(-c2cccnc2NC2CCCC2)cc1F [Example 73, 4-[4-[2-(cyclopentylamino)-3-pyridyl]-2,6-difluoro-phenoxy]butanoic acid] |
| 200 to 2000 nM | O=C(O)CCCOc1c(F)cc(-c2cccnc2NCC2CC2)cc1F [Example 74, 4-[4-[2-(cyclopropylmethylamino)-3-pyridyl]-2,6-difluoro-phenoxy]butanoic acid] |
| 200 to 2000 nM | O=C(O)CCCOc1c(F)cc(-c2cccc(NCC3CC3)n2)cc1F [Example 75, 4-[4-[6-(cyclopropylmethylamino)-2-pyridyl]-2,6-difluoro-phenoxy]butanoic acid] |

Second part, the compound before the results:

| Compound | EC50 |
| --- | --- |
| O=C(O)CCCOc1ccc(-c2ccccc2OC2CCCC2)cc1 [Example 56, 4-(2′-cyclopentyloxy-biphenyl-4-yloxy)-butyric acid] | 200 to 2000 nM |
| CC(C)Oc1ccccc1-c1ccc(OCCCC(=O)O)cc1 [Example 57, 4-(2′-isopropoxy-biphenyl-4-yloxy)-butyric acid] | 200 to 2000 nM |
| O=C(O)CCCOc1ccc(-c2ccccc2OCC2CC2)cc1 [Example 58, 4-(2′-cyclopropylmethoxy-biphenyl-4-yloxy)-butyric acid] | 200 to 2000 nM |
| CC(CCOc1c(F)cc(-c2cccnc2SC2CCC2)cc1F)C(=O)O (stereo not shown) [Example 59, 4-[4-(2-cyclobutylsulfanyl-pyridin-3-yl)-2,6-difluoro-phenoxy]-2-methyl-butyric acid] | < 200 nM |
| O=C(O)C1CC1COc1c(F)cc(-c2cccnc2SC2CCC2)cc1F (stereo not shown) [Example 60, 2-[4-(2-cyclobutylsulfanyl-pyridin-3-yl)-2,6-difluoro-phenoxymethyl]-cyclopropanecarboxylic acid] | < 200 nM |
| O=C(O)CCCOc1cc(F)c(-c2cccnc2SC2CCC2)cc1F [Example 61, 4-[4-(2-cyclobutylsulfanyl-pyridin-3-yl)-2,5-difluoro-phenoxy]-butyric acid] | 200 to 2000 nM |
| O=C(O)CCCOc1cc(F)c(-c2cccnc2SC2CCC2)c(F)c1 [Example 67, 4-[4-(2-cyclobutylsulfanyl-pyridin-3-yl)-3,5-difluoro-phenoxy]-butyric acid] | 200 to 2000 nM |
| O=C(O)CCCOc1c(F)cc(-c2cccnc2OC2CCOCC2)cc1F [Example 68, 4-{2,6-difluoro-4-[2-(tetrahydro-pyran-4-yloxy)-pyridin-3-yl]-phenoxy}-butyric acid] | 200 to 2000 nM |

Source: patent US10221138B2, “Biaryl derivatives as GPR120 agonists” (LG CHEM, LTD., priority 2013, dated 2019)
